Structures are written as SMILES.

One test has as its target BTK (Homo sapiens (Human), UniProt Q06187). As to the kind of experiment: BTK enzyme experiment (ADP-Glo kinase assay). It is filed as biochemical. Particulars: 10 nM BTK, ATP 125 μM, Poly(Glu4, Tyr1), 90 minutes at 20° C.; read-out: BTK(WT) IC50. On the procedure:
(§1) A 3-fold gradient concentration stock solution of 1000× compound was prepared using DMSO and diluted 100-fold to 10× compound stock solution using reaction buffer (50 mM HEPES, pH 7.5, 0.0015% Briji-35, 2 mM DTT, 10 mM MgCl2), and the 10× compound stock solution was transferred to a 384-well plate. Enzyme reactions were set up with BTK Kinase Enzyme System (Promega Catalog #V2941) or BTK (C481S) Kinase Enzyme System (Promega Catalog #VA7033). First, a 2× enzyme solution containing 10 nM BTK or 10 nM BTK C481S was prepared with reaction buffer and added to the plate, and incubated with the compound for 10 minutes. […] Finally, the kinase activity was detected according to the experimental steps provided by ADP-Glo™ kinase Assay Kit (Promega, #V9101), and finally the luminescence chemiluminescence value was read. DMSO was used as the maximum signal value, and adding no enzyme was used as the minimum signal value. The inhibition rate of the compound (%)=(maximum signal value−compound signal value)/(maximum signal value−minimum signal value)×100% was calculated. The compound gradient dilution concentration and the corresponding inhibition rate of the enzyme activity were fit by using XLFit four-parameter method, and IC50 value was calculated.
A general note: In ADP-Glo the light output rises with the ADP produced.

The next test addresses BTK (C481S) (Homo sapiens (Human), UniProt Q06187, C481S). The test is described as follows: BTK C481S enzyme experiment (ADP-Glo kinase assay). It is filed as biochemical. Particulars: 10 nM BTK C481S, ATP 125 μM, Poly(Glu4, Tyr1), 90 minutes at 20° C. The method, then: as §1

BTK, sequence (Q06187 whole entry): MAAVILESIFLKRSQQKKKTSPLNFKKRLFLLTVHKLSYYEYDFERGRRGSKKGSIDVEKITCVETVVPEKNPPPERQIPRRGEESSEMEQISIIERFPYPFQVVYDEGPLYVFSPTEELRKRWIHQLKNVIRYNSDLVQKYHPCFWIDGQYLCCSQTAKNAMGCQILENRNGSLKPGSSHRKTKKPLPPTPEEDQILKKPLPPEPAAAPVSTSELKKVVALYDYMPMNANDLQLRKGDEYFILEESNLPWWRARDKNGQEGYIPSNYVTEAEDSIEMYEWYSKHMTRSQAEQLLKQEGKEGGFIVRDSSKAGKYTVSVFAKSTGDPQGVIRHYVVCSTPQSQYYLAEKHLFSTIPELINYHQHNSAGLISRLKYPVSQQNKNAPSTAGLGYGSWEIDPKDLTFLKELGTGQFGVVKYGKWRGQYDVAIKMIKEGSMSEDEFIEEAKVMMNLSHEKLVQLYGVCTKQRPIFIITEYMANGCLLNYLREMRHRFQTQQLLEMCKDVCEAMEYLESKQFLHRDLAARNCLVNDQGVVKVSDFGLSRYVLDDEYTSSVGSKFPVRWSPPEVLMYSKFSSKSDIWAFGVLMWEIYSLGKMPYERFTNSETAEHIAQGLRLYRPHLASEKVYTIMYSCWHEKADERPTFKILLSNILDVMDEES
BTK (C481S), sequence (Q06187 whole entry C481S): as the sequence (Q06187 whole entry) above, with C481S counted along it

For orientation: IC50 means the concentration that gives 50% inhibition. In the case of `N#C[C@H]1CC[C@@]2(C1)Nc1c(cnc3[nH]cc(C(=O)c4ccc(Oc5ccccc5)cc4Cl)c13)NC2=O` (single isomer, unassigned) [Z26-4], the IC50 at BTK turned out to be 35.9 nM; against BTK (C481S), 28.5 nM.
On the same counts, the results for `COCC1(C)Nc2c(cnc3[nH]cc(C(=O)c4ccc(Oc5ccccc5)cc4Cl)c23)N(C)C1=O` (single isomer, unassigned) [Z52-2, 9-(2-chloro-4-phenoxybenzoyl)-2-(methoxymethyl)-2,4-dimethyl-1,2,4,7-tetrahydro-3H-pyrrolo[3′,2′:5,6]pyrido[3,4-b]pyrazin-3-one] are 136 nM and 92.3 nM.
Turning to `COCC1(C)Nc2c(cnc3[nH]cc(C(=O)c4ccc(Oc5cc(C)ccn5)cc4Cl)c23)NC1=O` (single isomer, unassigned) [Z64-2, 9-(2-chloro-4-((4-methylpyridin-2-yl)oxy)benzoyl)-2-(methoxymethyl)-2-methyl-1,2,4,7-tetrahydro-3H-pyrrolo[3′,2′:5,6]pyrido[3,4-b]pyrazin-3-one], the IC50 on BTK came to 8.4 nM; against BTK (C481S), 17.2 nM.
On the same counts, the results for `CCOC[C@@]1(C)Nc2c(cnc3[nH]cc(C(=O)c4ccc(Oc5ccccc5)cc4Cl)c23)NC1=O` (single isomer, unassigned) [Z67-2] are 20.4 nM and 17.8 nM.
On the same counts, the results for `COCC1(C)Nc2c(cnc3[nH]cc(C(=O)c4ccc(Oc5cc(C)ccn5)cc4F)c23)NC1=O` (single isomer, unassigned) [Z69-1, 9-(2-fluoro-4-((4-methylpyridin-2-yl)oxy)benzoyl)-2-(methoxymethyl)-2-methyl-1,2,4,7-tetrahydro-3H-pyrrolo[3′,2′:5,6]pyrido[3,4-b]pyrazin-3-one] are 13.9 nM and 21.2 nM.
On the same counts, the results for `COCC1(C)Nc2c(cnc3[nH]cc(C(=O)c4ccc(Oc5cc(C)ccn5)cc4F)c23)NC1=O` (single isomer, unassigned) [Z69-2, 9-(2-fluoro-4-((4-methylpyridin-2-yl)oxy)benzoyl)-2-(methoxymethyl)-2-methyl-1,2,4,7-tetrahydro-3H-pyrrolo[3′,2′:5,6]pyrido[3,4-b]pyrazin-3-one] are 17.5 nM and 28.3 nM.
As for `COC[C@]1(C)Nc2c(cnc3[nH]cc(C(=O)c4ccc(Oc5ccccc5)cc4F)c23)NC1=O` (single isomer, unassigned) [Z71-2], the figures for the IC50 on BTK and against BTK (C481S) were 23.5 nM and 19.2 nM, respectively.
On the same counts, the results for `COCC1(C)Nc2c(cnc3[nH]cc(C(=O)c4ccc(Oc5cc(C6CC6)ccn5)cc4Cl)c23)NC1=O` (single isomer, unassigned) [Z73-1, 9-(2-chloro-4-((4-cyclopropylpyridin-2-yl)oxy)benzoyl)-2-(methoxymethyl)-2-methyl-4,7-dihydro-1H-pyrrolo[3′,2′:5,6]pyrido[3,4-b]pyrazin-3(2H)-one] are 15.3 nM and 29.5 nM.
On the same counts, the results for `COCC1(C)Nc2c(cnc3[nH]cc(C(=O)c4ccc(Oc5cc(C6CC6)ccn5)cc4Cl)c23)NC1=O` (single isomer, unassigned) [Z73-2, 9-(2-chloro-4-((4-cyclopropylpyridin-2-yl)oxy)benzoyl)-2-(methoxymethyl)-2-methyl-4,7-dihydro-1H-pyrrolo[3′,2′:5,6]pyrido[3,4-b]pyrazin-3(2H)-one] are 34.3 nM and 60.8 nM.
On the same counts, the results for `COCCOCC1(C)Nc2c(cnc3[nH]cc(C(=O)c4ccc(Oc5ccccc5)cc4Cl)c23)NC1=O` (single isomer, unassigned) [Z153-2, 9-(2-chloro-4-phenoxybenzoyl)-2-((2-methoxyethoxy)methyl)-2-methyl-1,2,4,7-tetrahydro-3H-pyrrolo[3′,2′:5,6]pyrido[3,4-b]pyrazin-3-one] are 114 nM and 51.1 nM.
For the molecule `CN1CCC2(CC1)Nc1c(cnc3[nH]cc(C(=O)c4ccc(Oc5ccccc5)cc4Cl)c13)NC2=O` [Z17, 9′-(2-chloro-4-phenoxybenzoyl)-1-methyl-4′,7′-dihydrospiro[piperidine-4,2′-pyrrolo[3′,2′:5,6]pyrido[3,4-b]pyrazin]-3′(1′H)-one], the IC50 at BTK amounted to 345 nM; against BTK (C481S), 273 nM.
On the same counts, the results for `O=C(c1ccc(Oc2ccccc2)cc1Cl)c1c[nH]c2ncc3c(c12)NC1(CCOC1)CO3` (centres unmarked) [Z18] are 145 nM and 87.7 nM.
On the same counts, the results for `CN1CCCC2(C1)Nc1c(cnc3[nH]cc(C(=O)c4ccc(Oc5ccccc5)cc4Cl)c13)NC2=O` (centres unmarked) [Z19, 9′-(2-chloro-4-phenoxybenzoyl)-1-methyl-4′,7′-dihydrospiro[piperidine-3,2′-pyrrolo[3′,2′:5,6]pyrido[3,4-b]pyrazin]-3′(1′H)-one] are 23.1 nM and 12.6 nM.
With `CN1C(=O)C2(CCOCC2)Nc2c1cnc1[nH]cc(C(=O)c3ccc(Oc4ccccc4)cc3Cl)c21` [Z22, 9′-(2-chloro-4-phenoxybenzoyl)-4′-methyl-2,3,4′,5,6,7′-hexahydrospiro[pyran-4,2′-pyrrolo[3′,2′:5,6]pyrido[3,4-b]pyrazin]-3′(1′H)-one], the IC50 amounted to 27.1 nM on BTK and 7.2 nM against BTK (C481S).
As to `CC1(CO)Nc2c(cnc3[nH]cc(C(=O)c4ccc(Oc5ncccc5C(F)(F)F)cc4Cl)c23)NC1=O` (centres unmarked) [Z55, 9-(2-chloro-4-((3-(trifluoromethyl)pyridin-2-yl)oxy)benzoyl)-2-(hydroxymethyl)-2-methyl-4,7-dihydro-1H-pyrrolo[3′,2′:5,6]pyrido[3,4-b]pyrazin-3(2H)-one], the IC50 on BTK came to 142 nM; on BTK (C481S), 120 nM.
`Cc1ccnc(Oc2ccc(C(=O)c3c[nH]c4ncc5c(c34)NC(C)(CO)C(=O)N5)c(Cl)c2)c1` (centres unmarked) [Z56, 9-(2-chloro-4-((4-methylpyridin-2-yl)oxy)benzoyl)-2-(hydroxymethyl)-2-methyl-1,2,4,7-tetrahydro-3H-pyrrolo[3′,2′:5,6]pyrido[3,4-b]pyrazin-3-one]: the IC50 amounted to 22.9 nM at BTK and 18.4 nM on BTK (C481S).
On to `CN(C)CCN1C(=O)C(C)(C)Nc2c1cnc1[nH]cc(C(=O)c3ccc(Oc4ccccc4)cc3Cl)c21` [Z63], for which the figures for the IC50 at BTK and against BTK (C481S) were 185 nM and 129 nM, respectively.
`COCC1(C)Nc2c(cnc3[nH]cc(C(=O)c4ccc(Oc5cc(C)ccn5)cc4F)c23)NC1=O` (centres unmarked) [Z69, 9-(2-fluoro-4-((4-methylpyridin-2-yl)oxy)benzoyl)-2-(methoxymethyl)-2-methyl-1,2,4,7-tetrahydro-3H-pyrrolo[3′,2′:5,6]pyrido[3,4-b]pyrazin-3-one]: the IC50 at BTK came to 34.8 nM; at BTK (C481S) it was 28 nM.
With `COC[C@]1(C)Nc2c(cnc3[nH]cc(C(=O)c4ccccc4Cl)c23)NC1=O` [Z79, (S)-9-(2-chlorobenzoyl)-2-(methoxymethyl)-2-methyl-1,2,4,7-tetrahydro-3H-pyrrolo[3′,2′:5,6]pyrido[3,4-b]pyrazin-3-one], the IC50 is 5.8 nM on BTK and 3.2 nM at BTK (C481S).
On the same counts, the results for `COC[C@]1(C)Nc2c(cnc3[nH]cc(C(=O)c4cc(F)ccc4Cl)c23)NC1=O` [Z85, (S)-9-(2-chloro-5-fluorobenzoyl)-2-(methoxymethyl)-2-methyl-1,2,4,7-tetrahydro-3H-pyrrolo[3′,2′:5,6]pyrido[3,4-b]pyrazin-3-one] are 15.2 nM and 18.5 nM.
In the case of `COC[C@]1(C)Nc2c(cnc3[nH]cc(C(=O)c4ccccc4Br)c23)NC1=O` [Z86, (S)-9-(2-bromobenzoyl)-2-(methoxymethyl)-2-methyl-1,2,4,7-tetrahydro-3H-pyrrolo[3′,2′:5,6]pyrido[3,4-b]pyrazin-3-one], the IC50 on BTK was 16 nM; at BTK (C481S), 9.7 nM.
On the same counts, the results for `COC[C@]1(C)Nc2c(cnc3[nH]cc(C(=O)c4ccccc4)c23)NC1=O` [Z89, (S)-9-benzoyl-2-(methoxymethyl)-2-methyl-1,2,4,7-tetrahydro-3H-pyrrolo[3′,2′:5,6]pyrido[3,4-b]pyrazin-3-one] are 23.4 nM and 7.5 nM.
On the same counts, the results for `COC[C@]1(C)Nc2c(cnc3[nH]cc(C(=O)c4sccc4Cl)c23)NC1=O` [Z103, (S)-9-(3-chlorothiophene-2-carbonyl)-2-(methoxymethyl)-2-methyl-1,2,4,7-tetrahydro-3H-pyrrolo[3′,2′:5,6]pyrido[3,4-b]pyrazin-3-one] are 20.1 nM and 9.8 nM.
Take `COC[C@]1(C)Nc2c(cnc3[nH]cc(C(=O)c4ccc(OC)cc4Cl)c23)NC1=O` [Z113, (S)-9-(2-chloro-4-methoxybenzoyl)-2-(methoxymethyl)-2-methyl-1,2,4,7-tetrahydro-3H-pyrrolo[3′,2′:5,6]pyrido[3,4-b]pyrazin-3-one]: the IC50 was 61.8 nM on BTK and 61.1 nM against BTK (C481S).
On the same counts, the results for `COC[C@]1(C)Nc2c(cnc3[nH]cc(C(=O)c4ccc(OC5CCCC5)cc4Cl)c23)NC1=O` [Z122, (S)-9-(2-chloro-4-(cyclopentyloxy)benzoyl)-2-(methoxymethyl)-2-methyl-1,2,4,7-tetrahydro-3H-pyrrolo[3′,2′:5,6]pyrido[3,4-b]pyrazin-3-one] are 64.1 nM and 70.5 nM.

The record behind these values is US20240360154A1, “AROYL SUBSTITUTED TRICYCLIC COMPOUND, PREPARATION METHOD THEREFOR AND USE THEREOF” (GENFLEET THERAPEUTICS (SHANGHAI) INC., priority 2020, published 2024).
